The source of these data is paper PMC12114571, “3-(3-Azabicyclo[2, 2, 1]heptan-2-yl)-1,2,4-oxadiazoles as Novel Potent DPP-4 Inhibitors to Treat T2DM” (Pharmaceuticals, 2025).

Like-named read-outs stand apart in the source and are kept apart here.

Experiment [1] addresses T1, DPP-9 (Homo sapiens, UniProt Q86TI2).
T1 construct: purchased BPS Bioscience
As to the kind of experiment: Fluorogenic DPP-9 Assay Kit inhibition assay. The class given is biochemical. The conditions noted are these: for IC50: dilution range 10^−2 to 10^−8 M. As to the method:
(§1) The assessment of DPP-4 enzyme inhibitory activities for the synthesised compounds was performed using protocols similar to those previously described in the literature. […] Following a brief incubation period (37 °C for 30 min), absorbance at 405 nm was measured. Initial optimisation of the procedure utilised reference compounds. […] Correspondingly, the analysis of inhibition activity for related enzymes was executed using DPP-8 and DPP-9 inhibition assays, where the compounds were studied in the dilution range 10^−2 to 10^−8 M (Table 2).
(§2) For the in vitro assays, we used the substrate Gly-Pro-p-nitroanilide (H-Gly-Pro pNA HCl, G0513) and recombinant dipeptidyl peptidase-4 enzyme (D4943), which were purchased from Sigma-Aldrich (St. Louis, MO, USA). Samples containing DPP-4 (0.0015 U/well) and varying concentrations of test compounds were incubated with the chromogenic peptide substrate, G0513 (90 µg/well), in a total volume of 100 µL of buffer system (50 mM Tris-HCl, 50 mM NaCl, 0.01% Triton, pH = 7.6). The mixtures were incubated at 37 ◦C for 30 min, and the absorbance at 405 nm was measured using the microplate reader ChemWell (Awareness Technology Inc., Palm City, FL, USA). The DPP-4 inhibitory activities for each test compound were calculated. IC50 values were obtained using GraphPad Prism 8 software. The inhibition activity analysis of the related enzymes was performed using the “Fluorogenic DPP-8 Assay Kit” and “Fluorogenic DPP-9 Assay Kit”, both purchased from BPS Bioscience (San Diego, CA, USA). The dilution range for every compound was 10^−2–10^−8 M.

Experiment [2] addresses T2, DPP-8 (Homo sapiens, UniProt Q6V1X1).
T2 construct: purchased BPS Bioscience
As to the kind of experiment: Fluorogenic DPP-8 Assay Kit inhibition assay. The class given is biochemical. The note with it: for IC50: dilution range 10^−2 to 10^−8 M. Here is the method:
as §1, §2

The target of experiment [3] is T3, recombinant DPP-4 enzyme D4943 (Homo sapiens, UniProt P27487).
T3 construct: purchased Sigma-Aldrich D4943
T3 sequence (P27487 whole entry): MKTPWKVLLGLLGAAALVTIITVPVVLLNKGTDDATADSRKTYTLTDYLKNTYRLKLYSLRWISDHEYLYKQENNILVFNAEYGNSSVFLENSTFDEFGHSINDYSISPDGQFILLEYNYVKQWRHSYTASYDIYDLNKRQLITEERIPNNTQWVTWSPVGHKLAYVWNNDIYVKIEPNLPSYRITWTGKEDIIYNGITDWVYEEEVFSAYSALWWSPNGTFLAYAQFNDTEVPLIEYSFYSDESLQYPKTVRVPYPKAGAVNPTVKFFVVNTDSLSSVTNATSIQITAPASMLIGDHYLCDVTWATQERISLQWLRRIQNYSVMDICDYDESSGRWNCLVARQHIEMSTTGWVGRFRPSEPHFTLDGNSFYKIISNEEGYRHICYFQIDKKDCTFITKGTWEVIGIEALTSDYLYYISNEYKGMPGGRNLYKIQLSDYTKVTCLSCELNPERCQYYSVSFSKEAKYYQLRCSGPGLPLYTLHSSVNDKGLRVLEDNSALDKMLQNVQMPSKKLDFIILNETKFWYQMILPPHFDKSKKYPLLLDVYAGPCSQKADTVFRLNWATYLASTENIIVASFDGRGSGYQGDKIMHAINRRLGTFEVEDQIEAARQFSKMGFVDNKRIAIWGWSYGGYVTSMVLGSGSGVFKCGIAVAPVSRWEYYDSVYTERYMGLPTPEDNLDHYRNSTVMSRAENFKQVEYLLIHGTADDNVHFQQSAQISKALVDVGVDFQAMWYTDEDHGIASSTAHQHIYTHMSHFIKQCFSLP
As to the kind of experiment: DPP-4 enzyme inhibitory assay, chromogenic substrate Gly-Pro-pNA, absorbance at 405 nm. The conditions noted are these: 37 °C for 30 min, pH = 7.6, dilution range 10^−4 to 10^−11 M. Format: biochemical. Here is the method: as §1, §2

The target in experiment [4] is T2, DPP-8. On the set-up: method as in PMID 35337071. The conditions noted are these: neogliptin reference value; cited from earlier work.
Experiment [5] deals with T3, recombinant DPP-4 enzyme D4943. On the set-up: method as in PMID 35337071. The note with it: neogliptin reference value; cited from earlier work.
Experiment [6] has as its target T1, DPP-9. Also on record: method as in PMID 35337071. The conditions noted are these: neogliptin reference value; cited from earlier work.
Where [7] appears, read: concentration range 10^−3–10^−6 M.

T2 sequence (Q6V1X1 whole entry): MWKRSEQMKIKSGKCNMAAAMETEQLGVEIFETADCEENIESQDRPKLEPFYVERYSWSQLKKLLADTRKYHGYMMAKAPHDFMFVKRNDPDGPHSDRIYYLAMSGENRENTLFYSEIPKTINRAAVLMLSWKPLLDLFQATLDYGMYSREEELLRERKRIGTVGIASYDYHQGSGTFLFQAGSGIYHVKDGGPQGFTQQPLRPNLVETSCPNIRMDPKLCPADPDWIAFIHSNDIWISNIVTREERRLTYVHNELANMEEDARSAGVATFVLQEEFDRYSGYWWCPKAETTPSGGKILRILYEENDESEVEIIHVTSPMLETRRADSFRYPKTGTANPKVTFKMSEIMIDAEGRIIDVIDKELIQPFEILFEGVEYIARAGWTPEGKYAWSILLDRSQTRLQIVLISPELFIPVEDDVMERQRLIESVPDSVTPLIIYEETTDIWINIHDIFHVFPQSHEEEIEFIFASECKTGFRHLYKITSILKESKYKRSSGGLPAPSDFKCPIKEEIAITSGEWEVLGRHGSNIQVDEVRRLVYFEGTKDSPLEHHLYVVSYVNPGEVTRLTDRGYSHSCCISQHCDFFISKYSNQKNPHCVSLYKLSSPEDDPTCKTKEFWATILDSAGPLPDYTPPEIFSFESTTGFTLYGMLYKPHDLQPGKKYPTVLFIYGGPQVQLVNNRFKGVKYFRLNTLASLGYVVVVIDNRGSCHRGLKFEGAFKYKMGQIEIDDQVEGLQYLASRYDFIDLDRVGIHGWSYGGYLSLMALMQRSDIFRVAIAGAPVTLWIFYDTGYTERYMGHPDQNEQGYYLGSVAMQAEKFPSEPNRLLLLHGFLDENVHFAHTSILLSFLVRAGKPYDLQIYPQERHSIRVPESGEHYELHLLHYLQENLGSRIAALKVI
T1 sequence (Q86TI2 whole entry): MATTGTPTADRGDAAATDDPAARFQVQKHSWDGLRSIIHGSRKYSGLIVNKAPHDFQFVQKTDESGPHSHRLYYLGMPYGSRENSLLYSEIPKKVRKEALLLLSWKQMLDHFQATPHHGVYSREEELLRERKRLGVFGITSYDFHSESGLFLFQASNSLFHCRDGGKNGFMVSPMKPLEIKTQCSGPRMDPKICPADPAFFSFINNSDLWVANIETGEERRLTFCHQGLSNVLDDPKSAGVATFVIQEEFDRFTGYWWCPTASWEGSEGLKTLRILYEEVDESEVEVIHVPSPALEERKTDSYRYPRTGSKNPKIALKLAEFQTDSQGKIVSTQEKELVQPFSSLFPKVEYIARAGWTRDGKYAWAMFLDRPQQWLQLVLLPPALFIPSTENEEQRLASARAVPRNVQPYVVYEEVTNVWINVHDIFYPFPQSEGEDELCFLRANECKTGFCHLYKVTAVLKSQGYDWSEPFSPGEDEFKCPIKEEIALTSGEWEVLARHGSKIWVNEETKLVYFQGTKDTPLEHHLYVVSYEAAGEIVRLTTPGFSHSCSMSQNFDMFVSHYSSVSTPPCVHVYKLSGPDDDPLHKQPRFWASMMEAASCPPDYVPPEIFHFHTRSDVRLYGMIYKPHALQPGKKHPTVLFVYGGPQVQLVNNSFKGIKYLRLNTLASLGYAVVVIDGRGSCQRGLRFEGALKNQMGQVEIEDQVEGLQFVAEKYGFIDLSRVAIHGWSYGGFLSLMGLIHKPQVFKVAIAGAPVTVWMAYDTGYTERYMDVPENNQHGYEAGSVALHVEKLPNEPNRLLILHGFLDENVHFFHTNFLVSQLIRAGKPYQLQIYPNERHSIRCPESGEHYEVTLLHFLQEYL

The term IC50 denotes the concentration that inhibits the measured activity by half. Consider `N[C@@H](CC(=O)N1C2CCC(C2)[C@H]1c1noc(-c2ccccc2)n1)Cc1cc(F)c(F)cc1F` (stereo partly drawn) [3a, (3R)-3-Amino-1-[(3S)-3-(5-phenyl-1,2,4-oxadiazol-3-yl)-2-azabicyclo [2.2.1]heptan-2-yl]-4-(2,4,5-trifluorophenyl)butan-1-one], for which the IC50 at DPP-9 [1] is more than 1000 nM; against DPP-8 [2] it was more than 1000 nM; in experiment [3], 21.6 nM.

As to `N[C@@H](CC(=O)N1C2CCC(C2)[C@@H]1c1noc(-c2ccccc2)n1)Cc1cc(F)c(F)cc1F` (stereo partly drawn) [3b, (3R)-3-Amino-1-[(3R)-3-(5-phenyl-1,2,4-oxadiazol-3-yl)-2-azabicyclo[2.2.1]heptan-2-yl]-4-(2,4,5-trifluorophenyl)butan-1-one], the IC50 (against DPP-9 [1]; on DPP-8 [2]; in experiment [3]) was more than 1000 nM each time.

With `N[C@@H](CC(=O)N1C2CCC(C2)[C@H]1c1nc(-c2ccccc2)no1)Cc1cc(F)c(F)cc1F` (stereo partly drawn) [9a, (3R)-3-Amino-1-[(3S)-3-(3-phenyl-1,2,4-oxadiazol-5-yl)-2-azabicyclo[2.2.1]heptan-2-yl]-4-(2,4,5-trifluorophenyl)butan-1-one], the “DPP-9 inhibitory activity (in words)” value at DPP-9 [1] (setting [7]) is given as “did not mediate any substantial inhibition”. Also, the IC50 was more than 1000 nM on DPP-9 [1], more than 1000 nM against DPP-8 [2] and 4.3 nM in experiment [3]. On DPP-8 [2] (setting [7]), the “DPP-8 inhibitory activity (in words)” value is “did not mediate any substantial inhibition”.

For the compound `N[C@@H](CC(=O)N1C2CCC(C2)[C@@H]1c1nc(-c2ccccc2)no1)Cc1cc(F)c(F)cc1F` (stereo partly drawn) [9b, (3R)-3-Amino-1-[(3R)-3-(3-phenyl-1,2,4-oxadiazol-5-yl)-2-azabicyclo[2.2.1]heptan-2-yl]-4-(2,4,5-trifluorophenyl)butan-1-one], the IC50 (at DPP-9 [1]; at DPP-8 [2]; in experiment [3]) was more than 1000 nM each time.

For `N#CC1C2CCC(C2)N1C(=O)CC(N)Cc1cc(F)c(F)cc1F` (centres unmarked) [Neogliptin, neogliptin], the IC50 at DPP-8 [4] was more than 1000 nM; in experiment [5], 16.8 nM; at DPP-9 [6] it was more than 1000 nM.
